The results in this text go back to BindingDB's records for doi:10.1016/j.vascn.2014.07.002 (University of Oxford, 2014).

A short description of data set [1]: Inhibition of rapid delayed inward rectifying potassium current (IKr) measured using manual patch clamp assay.
The target in data set [2] is Potassium voltage-gated channel subfamily H member 2 (Homo sapiens, UniProt Q12809). Put plainly: Inhibition of rapid delayed inward rectifying potassium current (IKr) measured using manual patch clamp assay. For orientation: The patch-clamp technique gives a direct electrical read-out from membranes.
Sequence of Potassium voltage-gated channel subfamily H member 2 (Q12809 whole entry): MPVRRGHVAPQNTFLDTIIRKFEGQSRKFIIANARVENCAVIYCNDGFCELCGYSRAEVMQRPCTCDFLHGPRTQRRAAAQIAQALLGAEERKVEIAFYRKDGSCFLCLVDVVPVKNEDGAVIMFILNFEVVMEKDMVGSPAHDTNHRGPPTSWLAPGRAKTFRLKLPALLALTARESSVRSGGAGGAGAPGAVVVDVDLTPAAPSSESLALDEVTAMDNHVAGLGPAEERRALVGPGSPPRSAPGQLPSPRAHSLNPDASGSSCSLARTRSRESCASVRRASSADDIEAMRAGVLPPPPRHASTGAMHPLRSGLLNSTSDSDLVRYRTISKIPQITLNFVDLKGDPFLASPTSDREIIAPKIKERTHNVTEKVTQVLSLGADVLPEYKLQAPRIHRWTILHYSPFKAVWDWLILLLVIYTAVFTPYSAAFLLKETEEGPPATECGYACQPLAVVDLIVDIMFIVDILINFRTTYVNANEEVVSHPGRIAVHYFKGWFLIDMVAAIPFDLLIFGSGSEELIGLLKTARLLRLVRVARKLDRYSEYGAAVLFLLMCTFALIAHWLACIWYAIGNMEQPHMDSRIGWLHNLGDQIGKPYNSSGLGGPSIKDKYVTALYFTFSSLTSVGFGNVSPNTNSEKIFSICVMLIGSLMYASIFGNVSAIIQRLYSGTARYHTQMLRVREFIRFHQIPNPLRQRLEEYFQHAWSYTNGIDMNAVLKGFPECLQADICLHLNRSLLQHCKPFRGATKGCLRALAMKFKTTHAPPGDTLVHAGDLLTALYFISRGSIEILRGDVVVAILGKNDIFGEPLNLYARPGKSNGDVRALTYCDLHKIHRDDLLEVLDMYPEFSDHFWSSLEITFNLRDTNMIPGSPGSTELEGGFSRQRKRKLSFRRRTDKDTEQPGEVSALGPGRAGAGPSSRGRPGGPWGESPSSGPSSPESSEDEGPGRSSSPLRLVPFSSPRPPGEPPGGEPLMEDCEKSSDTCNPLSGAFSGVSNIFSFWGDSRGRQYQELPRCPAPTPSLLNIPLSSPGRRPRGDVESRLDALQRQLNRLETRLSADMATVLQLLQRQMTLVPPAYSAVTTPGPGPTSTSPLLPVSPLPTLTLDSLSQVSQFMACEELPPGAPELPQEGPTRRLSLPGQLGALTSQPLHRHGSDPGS

What is called IC50 is the concentration that gives 50% inhibition. A lower IC50 goes with higher potency.

`C[C@H]1CN(C[C@H](Cc2ccccc2)C(=O)NCC(=O)O)CC[C@@]1(C)c1cccc(O)c1` [ADL 8-2698] yielded an IC50 in data set [1] of 0.794 mM. Consider `O=C(O)c1ccc(-n2nc(-c3ccccc3O)nc2-c2ccccc2O)cc1` [CHEBI:49005], for which, in data set [2], the IC50 was found to be 3.98 mM.
